The values below come from patent US9428465B2, “Acid ceramidase inhibitors and their use as medicaments” (FONDAZIONE ISTITUTO ITALIANO DI TECHNOLOGIA, priority 2012, dated 2016).

The target of this experiment is human acid ceramidase (hAC) (Homo sapiens (Human), UniProt Q13510). Description: Human acid ceramidase (hAC) activity assay, UPLC/MS of lauric acid. The format is biochemical. To be noted: human acid ceramidase, 50 μM N-lauroyl ceramide, pH 4.5. How it is done:
Human acid ceramidase (hAC) cDNA was purchased from Open Biosystem (clone ID 3923451) and subcloned in the mammalian expression vector pCDNA3.1, containing the neomycin resistance gene. The cell line HEK293 was transfected with hAC-pCDNA3.1 construct using JetPEI reagent (Polypus Transfection™, Illkirch, FR) following the manufacturer instructions. A stable cell line of hAC-overexpressing HEK293 was generated by selection with G418 (1 mg/ml) and cell clones were derived by limited dilution plating. hAC-expressing clones were analyzed by western blot.
Hek293 cells overexpressing hAC were suspended in 20 mM Tris HCl (pH 7.5) containing 0.32M sucrose, sonicated and centrifuged at 800×g for 15 min at 4° C. The supernatants were centrifuged again at 12,000×g for 30 min at 4° C. The pellets were suspended in phosphate-buffered saline (PBS) and subjected to 2 freeze-thaw cycles at −80° C. The suspensions were centrifuged at 105,000×g for 1 h at 4° C. The supernatants containing hAC were kept at −80° C. until use. Protein concentration was measured using the bicinchoninic acid (BCA) assay (Pierce).
A hAC protein preparation (10 μg) was preincubated with inhibitors (final DMSO concentration 1%) in assay buffer (100 mM sodium phosphate, 0.1% Nonidet P-40, 150 mM NaCl, 3 mM DTT, 100 mM sodium citrate, pH 4.5) for 30 min at 37° C. Reactions were started by the addition of 50 μM N-lauroyl ceramide (Nu-Chek Prep, Elysian, Minn.) and carried on for 30 min at 37° C. Reactions were stopped by addition of a mixture of chloroform/methanol (2:1, vol/vol) containing 1 nmol 11-lauroleic acid (NuChek Prep). The organic phases were collected, dried under nitrogen and analyzed by UPLC/MS (Acquity, Waters) in the negative-ion mode monitoring the reaction product (lauric acid, m/z=199) using 11-lauroleic acid as internal standard.
Lipids were eluted on an Acquity UPLC BEH C18 column (50 mm length, 2.1 mm i.d., 1.7 μm pore size, Waters) column at 0.5 mL-min^−1 for 1.5 min with a gradient of acetonitrile (CH3CN) and water, both containing 0.25% acetic acid and 5 mM ammonium acetate (70% to 100% CH3CN in 0.5 min, 100% CH3CN for 0.5 min, 70% CH3CN for 0.4 min). The column temperature was 40° C. Electrospray ionization (ESI) was in the negative mode, capillary voltage was 1 kV and cone voltage was 50 V. Nitrogen was used as drying gas at a flow rate of 500 L/h and at a temperature of 400° C.
The [M-H]^− ion was monitored in the selected-ion monitoring mode (m/z values: lauric acid 199, 11-lauroleic acid […]). Calibration curves were generated with authentic lauric acid (Nu Check Prep). Inhibition of acid ceramidase activity was calculated as reduction of lauric acid in the samples compared to vehicle controls. IC50 values were calculated by non-linear regression analysis of log [concentration]/inhibition curves using GraphPad Prism 5 (GraphPad Software Inc., CA, USA) applying a standard slope curve fitting.

Structures are written as SMILES.

human acid ceramidase (hAC), sequence (Q13510 143-395): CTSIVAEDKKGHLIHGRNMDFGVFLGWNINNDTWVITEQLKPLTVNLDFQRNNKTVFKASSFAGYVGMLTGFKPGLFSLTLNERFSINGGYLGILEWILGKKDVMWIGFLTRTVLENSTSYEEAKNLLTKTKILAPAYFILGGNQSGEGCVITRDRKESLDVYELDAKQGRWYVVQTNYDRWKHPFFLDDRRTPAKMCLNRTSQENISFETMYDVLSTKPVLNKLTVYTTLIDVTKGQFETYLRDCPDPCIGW
human acid ceramidase (hAC), sequence (Q13510 22-142): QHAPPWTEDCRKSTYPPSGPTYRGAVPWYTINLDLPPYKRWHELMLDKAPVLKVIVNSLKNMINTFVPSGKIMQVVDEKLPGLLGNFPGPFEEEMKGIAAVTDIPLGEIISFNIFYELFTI

In the case of `CCCCCCNC(=O)n1cc(Br)c(=O)[nH]c1=O` [Example 5, 5-bromo-N-hexyl-2,4-dioxo-pyrimidine-1-carboxamide], the IC50 (usually the concentration at which inhibition is half-maximal) came to 35 nM. That is a double-digit nanomolar value.
